Results as given in ChEMBL document CHEMBL4834480, “Discovery of 3,5-Dimethyl-4-Sulfonyl-1H-Pyrrole-Based Myeloid Cell Leukemia 1 Inhibitors with High Affinity, Selectivity, and Oral Bioavailability” (J Med Chem, 2021).
Active and inactive are the calls of the source. The calls are words filed in the database; no cut-off is given here.

Experiments:
[1] = target: T1, Induced myeloid leukemia cell differentiation protein Mcl-1 (Homo sapiens, UniProt Q07820); experiment: Inhibition of FITC-labeled Bak BH3 peptide binding to GST-tagged MCL1 (171 to 327 residues) (unknown origin) expressed in Escherichia coli BL21 (DE3) incubated for 30 mins fluorescence polarization-based competitive binding assay
[2] = tested on: NCI-H929; experiment: Antiproliferative activity against human NCI-H929 cells assessed as decrease in cell viability measured after 72 hrs by MTT assay; type: functional, cell-based; details: NCI-H929, 72 h
[3] = tested on: K562; experiment: Antiproliferative activity against human K562 cells assessed as decrease in cell viability measured after 72 hrs by MTT assay; type: functional, cell-based; details: K562, 72 h
[4] = tested on: SK-BR-3; experiment: Antiproliferative activity against human SK-BR-3 cells assessed as decrease in cell viability measured after 72 hrs by MTT assay; type: functional, cell-based; details: SK-BR-3, 72 h
[5] = target: Bcl-2-like protein 1 (Homo sapiens, UniProt Q07817); experiment: Inhibition of BCL-XL(unknown origin) at 10 uM incubated for 120 mins by TR-FRET assay relative to control
[6] = tested on: MV4-11; experiment: Antiproliferative activity against human MV4-11 cells assessed as decrease in cell viability measured after 72 hrs by MTT assay; type: functional, cell-based; details: MV4-11, 72 h
[7] = target: T2, Bcl-2-related protein A1 (Homo sapiens) (UniProt Q16548); experiment: Inhibition of FITC-labeled Bak BH3 peptide binding to GST-tagged BFL1 (1 to 151 residues) (unknown origin) expressed in Escherichia coli BL21 (DE3) at 10 uM incubated for 30 mins fluorescence polarization-based competitive binding assay relative to control
T2 sequence (whole entry): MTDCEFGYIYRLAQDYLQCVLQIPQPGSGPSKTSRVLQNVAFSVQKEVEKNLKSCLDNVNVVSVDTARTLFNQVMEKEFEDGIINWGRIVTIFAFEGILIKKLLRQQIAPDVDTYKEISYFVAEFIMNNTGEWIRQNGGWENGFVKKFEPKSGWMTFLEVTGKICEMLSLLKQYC

[8] = tested on: NCI-H23; experiment: Antiproliferative activity against human NCI-H23 cells assessed as decrease in cell viability measured after 72 hrs by MTT assay; type: functional, cell-based; details: NCI-H23, 72 h
[9] = target: Apoptosis regulator Bcl-2 (Homo sapiens, UniProt P10415); experiment: Inhibition of FITC-labeled Bak BH3 peptide binding to GST-tagged BCL2 (1 to 205 residues) (unknown origin) expressed in Escherichia coli BL21 (DE3) at 10 uM incubated for 30 mins fluorescence polarization-based competitive binding assay relative to control
[10] = tested on: K562; experiment: Induction of apoptosis in human K562 cells assessed as upregulation of cleaved PARP up to 5 uM measured after 48 hrs by Western blot analysis; type: functional, cell-based; details: dose microM <=5, time 48.0 hrs
[11] = tested on: K562; experiment: Induction of apoptosis in human K562 cells assessed as activation of caspase 7 up to 5 uM after 4 hrs by luminescence based microplate reader assay; type: functional, cell-based; details: dose microM <=5, time 4.0 hrs
[12] = tested on: NCI-H929; experiment: Induction of apoptosis in human NCI-H929 cells measured after 48 hrs by annexinV-FITC/propidium iodide staining based flow cytometry analysis; type: functional, cell-based; details: dose 1-5 µM
[13] = tested on: NCI-H929; experiment: Induction of apoptosis in human NCI-H929 cells assessed as upregulation of cleaved PARP measured after 48 hrs by Western blot analysis; type: functional, cell-based; details: dose microM <=5, time 48.0 hrs
[14] = tested on: K562; experiment: Induction of apoptosis in human K562 cells assessed as activation of caspase 3 up to 5 uM after 4 hrs by luminescence based microplate reader assay; type: functional, cell-based; details: dose microM <=5, time 4.0 hrs
[15] = target: T1, Induced myeloid leukemia cell differentiation protein Mcl-1; experiment: Inhibition of FITC-labeled Bak BH3 peptide binding to GST-tagged MCL1 (171 to 327 residues) (unknown origin) expressed in Escherichia coli BL21 (DE3) at 30 uM incubated for 30 mins fluorescence polarization-based competitive binding assay relative to control
[16] = tested on: MV4-11; experiment: Antitumor activity against human MV4-11 cells xenografted in BALB/c nude mouse assessed as tumor growth inhibition by measuring T/C ratio at 10 mg/kg, ip administered every two days for 14 days relative to control; type: functional; details: time 14 day
[17] = tested on: MV4-11; experiment: Induction of apoptosis in human MV4-11 cells xenografted in BALB/c nude mouse assessed as induction of PARP cleavage at 10 mg/kg, ip administered every two days for 14 days by Western blot analysis; type: functional, organism-based; details: time 14.0 day

T1 sequence (Q07820 whole entry, the tested form may be a part): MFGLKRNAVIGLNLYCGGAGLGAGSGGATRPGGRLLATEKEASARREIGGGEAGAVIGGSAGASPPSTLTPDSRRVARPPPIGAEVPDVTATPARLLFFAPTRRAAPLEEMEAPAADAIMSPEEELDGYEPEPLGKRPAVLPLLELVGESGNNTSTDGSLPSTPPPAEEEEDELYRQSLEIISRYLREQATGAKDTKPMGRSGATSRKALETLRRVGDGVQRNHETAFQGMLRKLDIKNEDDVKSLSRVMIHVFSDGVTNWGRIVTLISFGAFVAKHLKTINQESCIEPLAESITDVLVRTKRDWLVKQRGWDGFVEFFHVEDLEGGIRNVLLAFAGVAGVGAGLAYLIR
Sequence of Apoptosis regulator Bcl-2 (P10415 whole entry, the tested form may be a part): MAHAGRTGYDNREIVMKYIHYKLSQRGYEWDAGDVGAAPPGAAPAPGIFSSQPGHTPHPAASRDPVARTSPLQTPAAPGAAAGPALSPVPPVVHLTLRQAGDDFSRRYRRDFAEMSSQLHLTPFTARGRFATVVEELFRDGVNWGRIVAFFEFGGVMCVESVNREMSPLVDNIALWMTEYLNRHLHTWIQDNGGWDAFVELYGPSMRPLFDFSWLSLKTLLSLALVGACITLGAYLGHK
Sequence of Bcl-2-like protein 1 (Q07817 whole entry): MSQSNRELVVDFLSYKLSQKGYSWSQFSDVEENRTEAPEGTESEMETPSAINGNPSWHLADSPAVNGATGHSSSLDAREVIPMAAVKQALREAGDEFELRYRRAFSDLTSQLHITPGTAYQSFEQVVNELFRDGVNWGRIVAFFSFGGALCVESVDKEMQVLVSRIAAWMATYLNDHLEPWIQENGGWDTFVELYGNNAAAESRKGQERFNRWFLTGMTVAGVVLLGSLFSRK

How did the Ki [1] turn out when `Cc1cc(OCCCn2c(C)c(S(=O)(=O)c3ccc([N+](=O)[O-])cc3)c(C)c2C(=O)O)cc(C)c1Cl` was run?
Its Ki is 420 nM.

`Cc1cc(OCCCn2c(C)c(S(=O)(=O)c3ccc(C(C)(C)C)cc3)c(C)c2C(=O)O)cc(C)c1Cl` was tested. Which Ki [1] did it give?
Its Ki is 340 nM.

Which results are given for `COc1ccc(S(=O)(=O)c2c(C)c(C(=O)O)n(CCCOc3cc(C)c(Cl)c(C)c3)c2C)cc1`?
IC50 [2]: 390 nM; Ki [1]: 70 nM; IC50 [3]: > 30000 nM; IC50 [4]: 6270 nM; inhibition [5]: 27%; IC50 [6]: 1560 nM; inhibition [7]: 1.82%; IC50 [8]: 9720 nM; inhibition [9]: 14.2%

With `CCc1c(S(=O)(=O)c2ccc(C)cc2)c(C)c(C(=O)O)n1CCCOc1cc(C)c(Cl)c(C)c1` as the compound, how does the Ki [1] read?
The Ki was 2490 nM.

Which Ki [1] does the source give for `Cc1cc(OCCCn2c(C)c(S(=O)(=O)c3ccc(C(C)C)cc3)c(C)c2C(=O)O)cc(C)c1Cl` here?
The Ki was 170 nM.

Which Ki [1] does the source give for `COc1ccccc1S(=O)(=O)c1c(C)c(C(=O)O)n(CCCOc2cc(C)c(Cl)c(C)c2)c1C` here?
The Ki was 430 nM.

With `Cc1ccc(S(=O)(=O)c2c(C)c(C(=O)O)n(CCCOc3cc(C)c(Cl)c(C)c3)c2C)cc1` as the compound, how does the Ki [1] read?
Its Ki is 170 nM.

`Cc1ccc(C(=O)c2cc(C(=O)O)n(CCCOc3cc(C)c(Cl)c(C)c3)c2)cc1` was tested. Which Ki [1] did it give?
The Ki was 700 nM.

Which Ki [1] does the source give for `Cc1cc(OCCCn2c(C)c(S(=O)(=O)c3c(C)cccc3C)c(C)c2C(=O)O)cc(C)c1Cl` here?
The Ki was > 10000 nM.

Which Ki [1] does the source give for `CCc1c(S(=O)(=O)c2ccc(C)cc2)c(C)n(CCCOc2cc(C)c(Cl)c(C)c2)c1C(=O)O` here?
The Ki was 120 nM.

For `Cc1cc(OCCCn2c(C)c(S(=O)(=O)c3ccc(-c4ccccc4)cc3)c(C)c2C(=O)O)cc(C)c1Cl`, which Ki [1] is on record?
Its Ki is 130 nM.

`CCc1c(S(=O)(=O)c2ccc(C)cc2)c(CC)n(CCCOc2cc(C)c(Cl)c(C)c2)c1C(=O)O` was tested. Which Ki [1] did it give?
Its Ki is 1930 nM.

`Cc1nn(C)c(COc2ccc(N3CCN(S(=O)(=O)N(C)C)CC3)cc2)c1-c1cccc2c(CCCOc3cccc4ccccc34)c(C(=O)O)n(CCN3CCOCC3)c12` was tested. Which IC50 [2] did it give?
Its IC50 is 900 nM.

And the Activity [10]?
The Activity was “inactive”.

And the Ki [1]?
The Ki was 6 nM.

And the Activity [11]?
The Activity was “inactive”.

And the Activity [12]?
The Activity was “Dose-Dependent Effect”.

And the IC50 [3]?
Its IC50 is > 30000 nM.

And the IC50 [4]?
Its IC50 is 4310 nM.

What about the IC50 [6] of the same compound?
Its IC50 is 1550 nM.

What about the Activity [13] of the same compound?
The Activity was “Dose-Dependent Effect”.

What about the Activity [14] of the same compound?
Its Activity is “inactive”.

What about the IC50 [8] of the same compound?
The IC50 was 13500 nM.

How did the Ki [1] turn out when `Cc1cc(OCCCn2c(C)c(S(=O)(=O)c3ccc(Oc4ccccc4)cc3)c(C)c2C(=O)O)cc(C)c1Cl` was run?
Its Ki is 200 nM.

`Cc1ccc(S(=O)(=O)c2cc(C(=O)O)n(CCCOc3cc(C)c(Cl)c(C)c3)c2)cc1` was tested. Which Ki [1] did it give?
The Ki was 470 nM.

Which Ki [1] does the source give for `Cc1cc(OCCCn2c(C)c(S(=O)(=O)C3CCCCC3)c(C)c2C(=O)O)cc(C)c1Cl` here?
The Ki was > 10000 nM.

`CCOc1ccc(S(=O)(=O)c2c(C)c(C(=O)O)n(CCCOc3cc(C)c(Cl)c(C)c3)c2C)cc1` was tested. Which Ki [1] did it give?
The Ki was 140 nM.

Which Ki [1] does the source give for `COc1cccc(S(=O)(=O)c2c(C)c(C(=O)O)n(CCCOc3cc(C)c(Cl)c(C)c3)c2C)c1` here?
The Ki was 200 nM.

With `Cc1ccc(S(=O)(=O)c2c(CC(C)C)c(C(=O)O)n(CCCOc3cc(C)c(Cl)c(C)c3)c2C)cc1` as the compound, how does the Ki [1] read?
The Ki was 240 nM.

With `Cc1ccc(Cc2cc(C(=O)O)n(CCCOc3cc(C)c(Cl)c(C)c3)c2)cc1` as the compound, how does the Ki [1] read?
Its Ki is 5340 nM.

What about the inhibition [15] of the same compound?
Its inhibition is 53%.

For `Cc1cc(OCCCn2c(C)c(S(=O)(=O)c3ccccc3)c(C)c2C(=O)O)cc(C)c1Cl`, which Ki [1] is on record?
The Ki was 190 nM.

`Cc1cc(OCCCn2c(C)c(S(=O)(=O)c3ccc(O)cc3)c(C)c2C(=O)O)cc(C)c1Cl` was tested. Which IC50 [2] did it give?
Its IC50 is 1390 nM.

And the Ki [1]?
Its Ki is 18 nM.

And the IC50 [3]?
The IC50 was 14800 nM.

What about the IC50 [4] of the same compound?
Its IC50 is 7020 nM.

What about the IC50 [6] of the same compound?
The IC50 was 2020 nM.

And the IC50 [8]?
The IC50 was 2160 nM.

Which results are given for `Cc1c2c(nn1C)CSCc1cc(n(C)n1)CSc1cc(c3ccccc3c1)OCCCc1c(C(=O)O)n(C)c3c-2c(Cl)ccc13` [AZD-5991]?
IC50 [2]: 36 nM; T/C [16]: 5.18%; IC50 [3]: 29600 nM; IC50 [4]: 30000 nM; IC50 [6]: 24 nM; IC50 [8]: 190 nM; Activity [17]: Active

Which Ki [1] does the source give for `Cc1cc(OCCCn2c(C)c(S(=O)(=O)c3ccccc3Br)c(C)c2C(=O)O)cc(C)c1Cl` here?
The Ki was > 10000 nM.
